Reference: US20080293771A1, “AZACYCLYLBENZAMIDE DERIVATIVES AS HISTAMINE-3 ANTAGONISTS” (Wyeth, priority 2007, published 2008)
Counter-ions that a name gives are not always drawn.

Test system: not given
Assay: not given
Conditions: not given

Row | SMILES | melting point
1 | COc1cc(C(=O)N(C)[C@@H]2CCN(C(C)C)C2)ccc1-n1c(C)nc2ccccc21 (as salt: hydrochloride) [Example 109, 3-methoxy-N-methyl-4-(2-methyl-1H-benzimidazol-1-yl)-N-[(3R)-1-(1-methylethyl)pyrrolidin-3-yl]benzamide] | 168 to 170 °C
2 | Cc1nc2ccccc2n1-c1ccc(C(=O)N(C)C2CCN(C(C)C)CC2)cc1F (as salt: hydrochloride) [Example 119, 3-fluoro-N-methyl-4-(2-methyl-1H-benzimidazol-1-yl)-N-[1-(1-methylethyl)piperidin-4-yl]benzamide] | 279 to 281 °C
3 | Cc1cc(C(=O)N(C)C2CCN(C(C)C)CC2)ccc1-n1c(C)nc2ccccc21 (as salt: hydrochloride) [Example 123, N,3-dimethyl-4-(2-methyl-1H-benzimidazol-1-yl)-N-[1-(1-methylethyl)piperidin-4-yl]benzamide] | 250 °C (dec.)
4 | COc1cc(C(=O)N(C)C2CCN(C(C)C)CC2)ccc1-n1c(C)nc2ccccc21 (as salt: hydrochloride) [Example 125, 3-methoxy-N-methyl-4-(2-methyl-1H-benzimidazol-1-yl)-N-[1-(1-methylethyl)piperidin-4-yl]benzamide] | 250 to 252 °C
5 | Cc1nc2ccccc2n1-c1ccc(C(=O)N[C@@H]2CCN(C3CCCCC3)C2)cc1 (as salt: hydrochloride) [Example 137, N-[(3R)-1-cyclohexylpyrrolidin-3-yl]-4-(2-methyl-1H-benzimidazol-1-yl)benzamide] | 194 to 196 °C
6 | CCN(C(=O)c1ccc(-n2c(C)nc3ccccc32)cc1)[C@@H]1CCNC1 (as salt: hydrochloride) [Example 138, (R)—N-ethyl-4-(2-methyl-1H-benzo[d]imidazol-1-yl)-N-(pyrrolidin-3-yl)benzamide hydrochloride] | 174 to 176 °C
7 | CCN(C(=O)c1ccc(-n2c(C)nc3ccccc32)cc1)[C@@H]1CCN(C2CCCCC2)C1 (as salt: hydrochloride) [Example 142, N-[(3R)-1-cyclohexylpyrrolidin-3-yl]-N-ethyl-4-(2-methyl-1H-benzimidazol-1-yl)benzamide] | 177 to 179 °C
8 | Cc1nc2ccccc2n1Cc1ccc(C(=O)N(C)[C@@H]2CCN(C(C)C)C2)c2ccccc12 (as salt: hydrochloride) [Example 143a, (R)—N-(1-isopropylpyrrolidin-3-yl)-N-methyl-4-((2-methyl-1H-benzo[d]imidazol-1-yl)methyl)-1-naphthamide] | 192 to 194 °C
9 | Cc1nc2ccccc2n1Cc1ccc(C(=O)N(C)[C@@H]2CCN(C3CCC3)C2)c2ccccc12 (as salt: hydrochloride) [Example 143b, (R)—N-(1-cyclobutylpyrrolidin-3-yl)-N-methyl-4-((2-methyl-1H-benzo[d]imidazol-1-yl)methyl)-1-naphthamide] | 157 to 159 °C
10 | Cc1nc2ccccc2n1Cc1ccc(C(=O)N(C)C2CCN(C(C)C)CC2)c2ccccc12 (as salt: hydrochloride) [Example 144b, N-(1-isopropylpiperidin-4-yl)-N-methyl-4-((2-methyl-1H-benzo[d]imidazol-1-yl)methyl)-1-naphthamide] | 153 to 155 °C

Further lines, results first:

Row | melting point | SMILES
11 | 168 to 170 °C | COc1cc(C(=O)N(C)[C@@H]2CCN(C3CCC3)C2)ccc1-n1c(C)nc2ccccc21 (as salt: hydrochloride) [Example 110, N-[(3R)-1-cyclobutylpyrrolidin-3-yl]-3-methoxy-N-methyl-4-(2-methyl-1H-benzimidazol-1-yl)benzamide]
12 | 193 to 195 °C | COc1cc(-n2c(C)nc3ccccc32)ccc1C(=O)N(C)[C@@H]1CCN(C(C)C)C1 (as salt: hydrochloride) [Example 111, (R)—N-(1-isopropylpyrrolidin-3-yl)-2-methoxy-N-methyl-4-(2-methyl-1H-benzo[d]imidazol-1-yl)benzamide]
13 | 202 to 204 °C | COc1cc(-n2c(C)nc3ccccc32)ccc1C(=O)N(C)[C@@H]1CCN(C2CCC2)C1 (as salt: hydrochloride) [Example 112, (R)—N-(1-cyclobutylpyrrolidin-3-yl)-2-methoxy-N-methyl-4-(2-methyl-1H-benzo[d]imidazol-1-yl)benzamide]
14 | 250 °C (dec.) | Cc1nc2ccccc2n1-c1ccc(C(=O)N(C)C2CCN(C3CCCC3)CC2)cc1F (as salt: hydrochloride) [Example 120, N-(1-cyclopentylpiperidin-4-yl)-3-fluoro-N-methyl-4-(2-methyl-1H-benzimidazol-1-yl)benzamide]
15 | 250 °C (dec.) | Cc1nc2ccccc2n1-c1ccc(C(=O)N(C)C2CCN(C(C)C)CC2)c(Cl)c1 (as salt: hydrochloride) [Example 121, 2-chloro-N-methyl-4-(2-methyl-1H-benzimidazol-1-yl)-N-[1-(1-methylethyl)piperidin-4-yl]benzamide]
16 | 240 °C (dec.) | Cc1nc2ccccc2n1-c1ccc(C(=O)N(C)C2CCN(C3CCCC3)CC2)c(Cl)c1 (as salt: hydrochloride) [Example 122, 2-chloro-N-(1-cyclopentylpiperidin-4-yl)-N-methyl-4-(2-methyl-1H-benzimidazol-1-yl)benzamide]
17 | 240 °C (dec.) | Cc1cc(C(=O)N(C)C2CCN(C3CCCC3)CC2)ccc1-n1c(C)nc2ccccc21 (as salt: hydrochloride) [Example 124, N-(1-cyclopentylpiperidin-4-yl)-N,3-dimethyl-4-(2-methyl-1H-benzimidazol-1-yl)benzamide]
18 | 244 to 246 °C | COc1cc(C(=O)N(C)C2CCN(C3CCCC3)CC2)ccc1-n1c(C)nc2ccccc21 (as salt: hydrochloride) [Example 126, N-(1-cyclopentylpiperidin-4-yl)-3-methoxy-N-methyl-4-(2-methyl-1H-benzimidazol-1-yl)benzamide]
19 | 215 to 217 °C | COc1cc(-n2c(C)nc3ccccc32)ccc1C(=O)N(C)C1CCN(C(C)C)CC1 (as salt: hydrochloride) [Example 127, N-(1-isopropylpiperidin-4-yl)-2-methoxy-N-methyl-4-(2-methyl-1H-benzo[d]imidazol-1-yl)benzamide]
20 | 210 to 212 °C | COc1cc(-n2c(C)nc3ccccc32)ccc1C(=O)N(C)C1CCN(C2CCCC2)CC1 (as salt: hydrochloride) [Example 128, N-(1-cyclopentylpiperidin-4-yl)-2-methoxy-N-methyl-4-(2-methyl-1H-benzo[d]imidazol-1-yl)benzamide]
21 | 228 to 230 °C | Cc1nc2ccccc2n1Cc1ccc(C(=O)N(C)C2CCN(C3CCCC3)CC2)c2ccccc12 (as salt: hydrochloride) [Example 144a, N-(1-cyclopentylpiperidin-4-yl)-N-methyl-4-((2-methyl-1H-benzo[d]imidazol-1-yl)methyl)-1-naphthamide]

Target: T1, Human Histamine H3 Receptor (Homo sapiens, UniProt Q9Y5N1)
T1 construct: expressed in transfected cells; host or cells: HEK293T (stably transfected; membrane preparation)
T1 sequence (Q9Y5N1 whole entry): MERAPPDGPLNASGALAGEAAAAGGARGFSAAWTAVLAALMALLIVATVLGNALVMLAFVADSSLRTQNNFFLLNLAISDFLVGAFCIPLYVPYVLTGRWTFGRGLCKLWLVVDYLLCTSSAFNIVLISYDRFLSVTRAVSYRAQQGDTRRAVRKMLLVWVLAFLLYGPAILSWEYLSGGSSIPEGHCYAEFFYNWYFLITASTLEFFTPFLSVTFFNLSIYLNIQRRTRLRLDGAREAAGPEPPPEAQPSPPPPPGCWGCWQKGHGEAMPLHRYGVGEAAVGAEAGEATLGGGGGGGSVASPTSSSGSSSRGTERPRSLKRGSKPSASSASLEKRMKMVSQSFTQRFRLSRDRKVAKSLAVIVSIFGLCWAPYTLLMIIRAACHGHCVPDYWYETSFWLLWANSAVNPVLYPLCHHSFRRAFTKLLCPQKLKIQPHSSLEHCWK
Assay: Methyl histamine binding in Human Histamine H3 Receptor Cell Line
Conditions: read-out: hH3 Binding Ki
Description: Evaluation of Methyl histamine binding in Human Histamine H3 Receptor Cell Line
The affinity of test compounds for the histamine 3 (H3) receptor is evaluated in the following manner. […] Cells are scraped from the plate, transferred to centrifuge tubes, washed one time in PBS by centrifugation in a Sorvall RT7 Plus centrifuge (2000 rpm 10 minutes, 4° C.). The resulting pellets are stored at −80° C. until ready for use. Cells are re-suspended in buffer (50 mM Tris pH=7.5) and placed in a Dounce homogenizer, douncing ten times to homogenize cells. The homogenate is spun down by centrifugation (Sorvall RT7 Plus, 1800 rpm 10 minutes, 4° C.). The supernatant is placed in a Corex tube and spun down by centrifugation (Sorvall RC 5c Plus, 17,000 rpm 20 minutes, 4° C.). The pellet is resuspended in buffer (50 mM Tris, pH 7.5). Protein concentration (ug/ul) is determined using the Micro-BCA Protein Determination. The binding assay is set up in a 96 well microtiter plate in a total volume of 250 uL. Non-specific binding is determined in the presence of 10 uM clobenpropit. The final radioligand concentration is 1 nM. The test compound is serially diluted using the Beckman Biomek2000 to a final approximate range of 100 uM to 100 pM. Membranes are suspended in buffer, homogenized in 2 bursts of ten seconds using a Vitris mechanical homogenizer set at power setting 5. Ten μg of membranes are added to each well. Following a one hour incubation at 30° C., the reaction is terminated by the addition of ice cold buffer and rapid filtration with a Packard Filtermate Harvester through a GF/B filter pre-soaked with 1% PEI for one hour. The plate is dried for one hour at 37° C. and 60 μL Microscint Scintillant is added to each well. The CPM per well is measured on a Packard Top Count NXT. Ki values are determined in nM. […] CPM values are expressed as % specific binding and plotted vs compound concentration. A curve is fitted using a four-parameter logistic fit and the IC50 value is determined. The Ki is calculated from this using the Cheng-Prusoff equation: […]=IC50/1+(L/Kd) where L=concentration of free radioligand used in the assay, and Kd is the dissociation constant of the radioligand for the receptor. L is determined for each experiment by counting an aliquot of the diluted radioligand (corresponding to that added to each well) and the Kd has previously been determined under identical conditions for this cell line/radioligand.

Row | SMILES | Ki
22 | Cc1nc2ccccc2n1-c1ccc(C(=O)N(C)C2CCNCC2)cc1 [Example 30, N-Methyl-4-(2-methylbenzimidazol-1-yl)-N-piperidin-4-yl-benzamide Hydrochloride] | > 100 nM
23 | Cc1nc2ccccc2n1-c1ccc(C(=O)N(C)C2CCN(C(C)C)CC2)cc1 [Example 31, N-(1-isopropylpiperidin-4-yl)-N-methyl-4-(2-methyl-1H-benzimidazol-1-yl)benzamide] | ≤ 10 nM
24 | Cc1nc2ccccc2n1Cc1ccc(C(=O)N(C)[C@@H]2CCNC2)cc1 [Example 35, N-Methyl-4-[(2-methylbenzimidazol-1-yl)methyl]-N—(R)-pyrrolidin-3-yl-benzamide Hydrochloride] | > 100 nM

Second part, the molecule after the results:

Row | Ki | SMILES
25 | ≤ 10 nM | Cc1nc2ccccc2n1-c1ccc(C(=O)N(C)C2CCN(C3CCCC3)CC2)cc1 [Example 32, N-(1-cyclopentylpiperidin-4-yl)-N-methyl-4-(2-methyl-1H-benzimidazol-1-yl)benzamide]
26 | > 100 nM | Cc1nc2ccccc2n1-c1ccc(C(=O)N(C)C2CCN(C3CCCCC3)CC2)cc1 [Example 33, N-(1-cyclohexylpiperidin-4-yl)-N-methyl-4-(2-methyl-1H-benzimidazol-1-yl)benzamide]
27 | 10.1 to 50 nM | Cc1nc2ccccc2n1-c1ccc(C(=O)N(C)C2CCN(C3CCC3)CC2)cc1 [Example 34, N-(1-cyclobutylpiperidin-4-yl)-N-methyl-4-(2-methyl-1H-benzimidazol-1-yl)benzamide]
